“Also recorded” adds a separate entry of the source.
Tests used:
mtDNA = mtDNA copy number by qPCR, MTS-XbaIR versus EtBr, in EPC100 cells; assay type: cell-based, human; details: qPCR relative to Actb, EtBr 50 ng/mL, untreated cells 6189.6867
Experimental: The efficiency and efficacy of the MTS-XbaIR expression vector relative to the conventional method that employs ethidium bromide (EtBr) was evaluated according to the scheme illustrated in FIG. 2A. The placental venous endothelium-derived cell line EPC100 with DsRed labeled mitochondria were cultured in pyruvate-free DMEM (Wako cat #044-29765) with 10% fetal bovine serum (FBS) and 1% penicillin/streptomycin (P/S), and at day 0 the cells were either untreated (“normal”), transfected with the MTS-XbaIR expression vector (“MTS-XbaIR”), or treated with 50 ng/mL of EtBr. At day 1, the cells were cultured in DMEM with 10% FBS, and 1% P/S supplemented with 100 μg/mL pyruvate and 50 μg/mL uridine. […] Cells with this partial reduction of mtDNA were termed as ρ(−) cells.

NHDF recipient cells = assay: engulfment of DsRed-labeled exogenous mitochondria by FACS with rapamycin or palmitic acid; assay type: cell-based, human; details: ρ(−) NHDF cells; rapamycin 50 ng/ml, palmitic acid 50 μM; FACS day 8
Experimental: Rapamycin was added into the culture media at the concentration of 50 ng/ml for 24 hours, and cells were exposed to glucose and essential amino acids free media without serum for 1 hour to simulate starvation. […] The ratio of phosphorylated AMPK to AMPK and phosphorylated p70 S6 kinase to p70 S6 kinase, which is a downstream target of mTORC1, were examined by using capillary electrophoresis, Wes™ (Protein Simple).
Next, we examined the effects of rapamycin and palmitic acid upon mitochondria engulfment by treating the cells with rapamycin or palmitic acid simultaneously during the mitochondria co-cultivation. A scheme of the protocol is illustrated in FIG. 6I. Briefly, the NHDF recipient cells were transfected with the MTS-XbaI expression vector and cultured with or without rapamycin, or with or without palmitic acid (PA). Puromycin selection for ρ(−) cells expressing the MTS-XbaI was performed after 48 hours. On day 6, transfer of isolated mitochondria marked with DsRed from EPC100 cells was performed. On Day8, FACS analyses were performed to detect the donor mitochondria by measuring DsRed expression in the NHDF recipient cells.

## CC[n+]1c(-c2ccccc2)c2cc(N)ccc2c2ccc(N)cc21 [EtBr, ethidium bromide]
mtDNA
  mtDNA copy number: 5169.1258

## CCCCCCCCCCCCCCCC(=O)O [palmitic acid]
NHDF recipient cells
  engulfment of DsRed-labeled isolated exogenous mitochondria: decreased; also recorded: clearly suppressed
